Where two headings read alike, the source gives them in different places.

Holding throughout (experiment): biochemical
What all share (set-up): 33PanQinase radiometric kinase activity assay, residual activity in % of control, contract lab Reaction Biology
Common to all, as to conditions: mean of intraexperimental duplicates, n = 1

The target in assay [1] is CDK2/CycA2 (Homo sapiens, UniProt P24941). The protocol: (§1) Kinase Screening was performed at Reaction Biology (Freiburg, Germany) by using the ^33PanQinase Assay.^[ [90] ^] Based on this knowledge, we commissioned a kinase screening by the firm Reaction Biology, targeting those kinases whose inhibition has shown an indirect effect on microtubules. In our selection, we included additional kinases that are known to be involved in centrosome amplification (PLK4^[ [82] ^]), centrosome clustering (CDK1/2,^[ [83] ^] PLK1^[ [84] ^]), spindle multipolarity (SRC^[ [85] ^]), microtubule dynamics (AKT1^[ [86] ^]), and LIMK1/2 activation (ROCK1^[ [87] ^]) or are crucial for the mitosis (BUB1B, NEK2/9, WEE1^[ [88] ^]). Nonetheless, 1(R) and 1(S) at 10 µM had almost no inhibitory effects on any of the chosen kinases (Table 4 ). Only Aurora A (mean residual activity for 1(R): 86%, 1(S): 98%) and ASK1 (mean residual activity for 1(R): 90%, 1(S): 117%) were slightly enantioselectively impacted. However, we theorize that those marginal inhibitions are not explanatory for the antiproliferative and morphological effects of 1(R) on cancer cells.

The target in assay [2] is T1, NEK9 (Homo sapiens, UniProt Q8TD19).
T1 sequence (Q8TD19 1-979): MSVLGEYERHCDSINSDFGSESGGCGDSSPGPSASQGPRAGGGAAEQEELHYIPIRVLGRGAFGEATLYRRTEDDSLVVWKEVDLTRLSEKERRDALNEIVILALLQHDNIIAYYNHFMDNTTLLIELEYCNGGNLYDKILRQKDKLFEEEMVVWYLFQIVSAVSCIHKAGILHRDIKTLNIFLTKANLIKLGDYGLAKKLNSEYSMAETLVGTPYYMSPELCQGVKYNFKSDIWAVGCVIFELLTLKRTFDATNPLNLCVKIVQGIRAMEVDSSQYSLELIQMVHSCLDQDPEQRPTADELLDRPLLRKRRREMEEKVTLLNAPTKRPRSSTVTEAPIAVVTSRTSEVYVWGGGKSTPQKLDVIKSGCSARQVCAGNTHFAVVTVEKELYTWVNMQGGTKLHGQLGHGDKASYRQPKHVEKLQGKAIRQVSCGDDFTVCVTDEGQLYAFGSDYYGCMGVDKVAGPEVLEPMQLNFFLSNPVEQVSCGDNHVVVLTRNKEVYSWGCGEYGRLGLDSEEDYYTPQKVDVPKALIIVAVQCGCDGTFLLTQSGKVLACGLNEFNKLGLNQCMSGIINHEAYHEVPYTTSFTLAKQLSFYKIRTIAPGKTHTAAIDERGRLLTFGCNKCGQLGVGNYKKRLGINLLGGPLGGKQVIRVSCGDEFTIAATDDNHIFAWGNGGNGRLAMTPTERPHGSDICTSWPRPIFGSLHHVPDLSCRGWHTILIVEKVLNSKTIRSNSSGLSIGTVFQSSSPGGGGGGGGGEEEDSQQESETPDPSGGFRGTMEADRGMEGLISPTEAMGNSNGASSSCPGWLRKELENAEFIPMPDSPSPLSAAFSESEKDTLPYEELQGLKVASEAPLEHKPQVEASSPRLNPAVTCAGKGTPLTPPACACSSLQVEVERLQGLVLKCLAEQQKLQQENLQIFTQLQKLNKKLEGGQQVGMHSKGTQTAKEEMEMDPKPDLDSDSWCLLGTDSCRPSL
The protocol: as §1

For assay [3], the target named is T2, PLK4 (Homo sapiens, UniProt O00444).
T2 sequence (O00444 1-970): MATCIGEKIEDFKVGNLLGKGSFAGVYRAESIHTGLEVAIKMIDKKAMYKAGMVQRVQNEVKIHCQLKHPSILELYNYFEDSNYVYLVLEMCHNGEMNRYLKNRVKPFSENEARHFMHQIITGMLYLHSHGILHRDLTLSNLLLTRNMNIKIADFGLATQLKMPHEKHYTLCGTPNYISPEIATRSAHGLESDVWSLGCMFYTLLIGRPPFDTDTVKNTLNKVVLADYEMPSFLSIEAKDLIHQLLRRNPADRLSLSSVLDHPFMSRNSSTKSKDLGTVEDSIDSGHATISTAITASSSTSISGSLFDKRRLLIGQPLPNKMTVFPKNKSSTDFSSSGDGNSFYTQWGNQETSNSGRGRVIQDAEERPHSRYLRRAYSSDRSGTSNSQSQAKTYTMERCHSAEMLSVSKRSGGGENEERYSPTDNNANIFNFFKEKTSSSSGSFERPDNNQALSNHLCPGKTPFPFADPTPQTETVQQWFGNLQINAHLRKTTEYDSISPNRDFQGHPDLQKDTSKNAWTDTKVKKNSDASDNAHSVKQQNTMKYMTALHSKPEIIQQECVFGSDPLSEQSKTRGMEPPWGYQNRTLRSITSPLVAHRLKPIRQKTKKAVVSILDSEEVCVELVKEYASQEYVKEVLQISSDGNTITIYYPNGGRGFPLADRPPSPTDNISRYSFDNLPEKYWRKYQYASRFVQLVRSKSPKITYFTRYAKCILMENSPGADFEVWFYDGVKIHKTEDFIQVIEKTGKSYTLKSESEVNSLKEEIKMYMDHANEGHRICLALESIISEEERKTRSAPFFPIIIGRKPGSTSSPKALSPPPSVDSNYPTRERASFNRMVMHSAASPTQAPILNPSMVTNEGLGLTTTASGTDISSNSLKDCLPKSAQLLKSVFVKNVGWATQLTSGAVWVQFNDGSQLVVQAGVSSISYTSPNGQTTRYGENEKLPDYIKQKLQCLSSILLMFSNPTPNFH
The protocol:
as §1

Assay [4] deals with CDK1/CycB1 (Homo sapiens, UniProt P06493). The protocol: as §1
In assay [5] the target is ROCK1 (Homo sapiens, UniProt Q13464). The protocol:
as §1

In assay [6] the target is BUB1B (Homo sapiens, UniProt O60566). The protocol:
as §1

The mark [7] stands for this setting: read-out: Residual activities [% of control] / 1(R) 10 µM.
The mark [8] stands for this setting: read-out: Residual activities [% of control] / 1(S) 10 µM.

Sequence of BUB1B (O60566 whole entry): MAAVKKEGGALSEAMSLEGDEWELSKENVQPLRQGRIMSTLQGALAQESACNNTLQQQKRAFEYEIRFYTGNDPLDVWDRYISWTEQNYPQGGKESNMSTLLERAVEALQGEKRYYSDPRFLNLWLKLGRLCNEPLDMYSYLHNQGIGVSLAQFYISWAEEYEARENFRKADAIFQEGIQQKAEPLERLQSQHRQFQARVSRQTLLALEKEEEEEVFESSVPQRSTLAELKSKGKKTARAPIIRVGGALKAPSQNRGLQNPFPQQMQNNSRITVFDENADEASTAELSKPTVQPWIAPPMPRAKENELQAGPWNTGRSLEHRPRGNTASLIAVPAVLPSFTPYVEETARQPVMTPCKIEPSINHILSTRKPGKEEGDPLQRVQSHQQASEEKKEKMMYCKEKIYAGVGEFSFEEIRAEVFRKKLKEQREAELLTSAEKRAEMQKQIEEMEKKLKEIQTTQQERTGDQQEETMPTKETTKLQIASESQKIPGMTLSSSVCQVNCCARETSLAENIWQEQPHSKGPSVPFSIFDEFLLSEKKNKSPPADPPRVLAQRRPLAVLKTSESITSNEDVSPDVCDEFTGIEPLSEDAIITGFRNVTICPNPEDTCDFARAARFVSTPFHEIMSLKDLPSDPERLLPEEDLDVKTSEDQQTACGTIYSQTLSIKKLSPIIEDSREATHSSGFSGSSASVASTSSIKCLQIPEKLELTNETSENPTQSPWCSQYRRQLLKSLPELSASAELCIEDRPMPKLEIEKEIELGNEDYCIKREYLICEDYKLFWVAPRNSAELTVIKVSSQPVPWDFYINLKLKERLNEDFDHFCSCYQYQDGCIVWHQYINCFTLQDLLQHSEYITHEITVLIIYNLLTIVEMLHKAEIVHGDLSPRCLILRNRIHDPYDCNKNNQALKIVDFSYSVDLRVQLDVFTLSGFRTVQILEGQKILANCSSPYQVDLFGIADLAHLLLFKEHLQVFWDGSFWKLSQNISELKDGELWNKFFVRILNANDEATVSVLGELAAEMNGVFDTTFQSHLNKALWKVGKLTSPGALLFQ
Sequence of CDK1/CycB1 (P06493 whole entry): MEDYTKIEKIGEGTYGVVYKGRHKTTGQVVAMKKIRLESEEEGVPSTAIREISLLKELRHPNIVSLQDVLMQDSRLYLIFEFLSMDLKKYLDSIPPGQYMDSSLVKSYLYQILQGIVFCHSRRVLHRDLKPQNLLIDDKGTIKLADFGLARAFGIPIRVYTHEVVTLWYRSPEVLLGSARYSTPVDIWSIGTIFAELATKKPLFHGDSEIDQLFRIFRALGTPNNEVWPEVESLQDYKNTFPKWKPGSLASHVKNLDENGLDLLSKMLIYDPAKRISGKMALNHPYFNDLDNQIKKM
Sequence of CDK1/CycB1 (P14635 whole entry partner): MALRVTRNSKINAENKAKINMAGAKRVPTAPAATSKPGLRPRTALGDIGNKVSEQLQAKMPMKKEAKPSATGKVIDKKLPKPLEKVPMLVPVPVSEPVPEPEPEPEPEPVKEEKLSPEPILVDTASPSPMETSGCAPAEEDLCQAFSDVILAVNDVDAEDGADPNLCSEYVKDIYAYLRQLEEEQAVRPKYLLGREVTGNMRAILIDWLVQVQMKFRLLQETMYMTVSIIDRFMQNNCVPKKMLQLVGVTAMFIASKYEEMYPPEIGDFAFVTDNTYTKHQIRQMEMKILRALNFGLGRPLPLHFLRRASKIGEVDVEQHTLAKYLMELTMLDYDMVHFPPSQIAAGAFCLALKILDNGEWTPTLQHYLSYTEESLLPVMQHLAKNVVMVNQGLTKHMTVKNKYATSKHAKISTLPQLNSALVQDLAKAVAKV
Sequence of ROCK1 (Q13464 whole entry): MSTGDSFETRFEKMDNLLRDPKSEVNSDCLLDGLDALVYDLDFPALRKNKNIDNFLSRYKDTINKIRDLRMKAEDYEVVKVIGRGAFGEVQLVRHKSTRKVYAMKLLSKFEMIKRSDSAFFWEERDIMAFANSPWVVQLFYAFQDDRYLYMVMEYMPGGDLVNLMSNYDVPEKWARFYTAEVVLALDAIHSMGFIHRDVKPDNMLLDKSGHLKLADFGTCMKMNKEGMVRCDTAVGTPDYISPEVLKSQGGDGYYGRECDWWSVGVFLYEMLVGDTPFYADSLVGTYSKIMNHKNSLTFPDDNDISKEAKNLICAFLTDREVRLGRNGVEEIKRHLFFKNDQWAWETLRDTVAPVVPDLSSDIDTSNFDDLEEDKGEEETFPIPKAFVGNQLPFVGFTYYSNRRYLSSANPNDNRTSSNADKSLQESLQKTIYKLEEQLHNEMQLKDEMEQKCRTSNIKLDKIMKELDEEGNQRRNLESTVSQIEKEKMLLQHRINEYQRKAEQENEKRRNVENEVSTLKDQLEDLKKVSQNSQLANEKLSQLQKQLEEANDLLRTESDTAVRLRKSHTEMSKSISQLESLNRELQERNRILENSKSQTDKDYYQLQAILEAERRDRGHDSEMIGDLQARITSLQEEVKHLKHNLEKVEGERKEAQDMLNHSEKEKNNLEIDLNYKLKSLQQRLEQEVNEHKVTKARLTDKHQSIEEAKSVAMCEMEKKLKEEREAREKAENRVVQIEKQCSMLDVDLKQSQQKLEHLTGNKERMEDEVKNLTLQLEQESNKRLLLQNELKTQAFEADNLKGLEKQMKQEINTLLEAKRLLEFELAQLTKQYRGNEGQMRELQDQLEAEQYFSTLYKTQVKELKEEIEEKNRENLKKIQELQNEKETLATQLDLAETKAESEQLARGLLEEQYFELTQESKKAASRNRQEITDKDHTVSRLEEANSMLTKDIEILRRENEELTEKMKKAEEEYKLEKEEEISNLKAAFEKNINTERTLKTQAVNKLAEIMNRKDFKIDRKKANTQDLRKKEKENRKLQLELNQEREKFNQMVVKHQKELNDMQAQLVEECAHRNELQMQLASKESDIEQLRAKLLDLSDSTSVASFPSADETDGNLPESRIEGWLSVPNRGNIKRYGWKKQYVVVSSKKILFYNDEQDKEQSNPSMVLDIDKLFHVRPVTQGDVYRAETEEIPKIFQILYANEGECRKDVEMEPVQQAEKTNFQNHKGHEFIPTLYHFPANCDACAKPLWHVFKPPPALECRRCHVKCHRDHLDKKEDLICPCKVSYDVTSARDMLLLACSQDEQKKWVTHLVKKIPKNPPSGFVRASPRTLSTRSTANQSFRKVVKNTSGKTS

For `Nc1ccc2ccccc2c1-c1c(N)ccc2ccccc12` [1(R), (R)‐[1,1′‐binaphthalene]‐2,2′‐diamine], the remaining activity at 10 µM in assay [1] (setting [7]) worked out at 95%; in assay [2] (setting [7]) it was 94%; in assay [3] (setting [7]) it was 97%; in assay [4] (setting [7]), 101%; in assay [5] (setting [7]), 100%; in assay [6] (setting [7]), 118%.

With `Nc1ccc2ccccc2c1-c1c(N)ccc2ccccc12` [1(S), S‐BINAM], the remaining activity at 10 µM in assay [1] (setting [8]) stood at 92%; in assay [2] (setting [8]) it was 96%; in assay [3] (setting [8]) it was 99%; in assay [4] (setting [8]), 100%; in assay [5] (setting [8]), 97%; in assay [6] (setting [8]), 111%.

Values taken from publication PMC12503911, “Cytotoxicity of Atropisomeric [1,1′‐Binaphthalene]‐2,2′‐Diamines (BINAM) and Analogs in Human Cancer Cells: Enantioselectivity, Structure–Activity Relationships, and Mechanism” (Chemmedchem, 2025).
